We go through four compounds from publication PMC8159961, “Exploring protein hotspots by optimized fragment pharmacophores” (Nature Communications, 2021).

Where two headings read alike, the source gives them in different places.

Usually Ki stands for the equilibrium dissociation constant of an inhibitor or competing ligand from its target.

The target of one assay is T1, human 5-HT6 receptor (Homo sapiens, UniProt P50406).
T1 construct: expressed in transfected cells
Kind of assay: GPCR radioligand binding assay, [3H]-LSD displacement, HEK293 membranes.

The target of a further assay is T2, human 5-HT1A receptor (Homo sapiens, UniProt P08908).
T2 construct: expressed in transfected cells
T2 sequence (P08908 1-422): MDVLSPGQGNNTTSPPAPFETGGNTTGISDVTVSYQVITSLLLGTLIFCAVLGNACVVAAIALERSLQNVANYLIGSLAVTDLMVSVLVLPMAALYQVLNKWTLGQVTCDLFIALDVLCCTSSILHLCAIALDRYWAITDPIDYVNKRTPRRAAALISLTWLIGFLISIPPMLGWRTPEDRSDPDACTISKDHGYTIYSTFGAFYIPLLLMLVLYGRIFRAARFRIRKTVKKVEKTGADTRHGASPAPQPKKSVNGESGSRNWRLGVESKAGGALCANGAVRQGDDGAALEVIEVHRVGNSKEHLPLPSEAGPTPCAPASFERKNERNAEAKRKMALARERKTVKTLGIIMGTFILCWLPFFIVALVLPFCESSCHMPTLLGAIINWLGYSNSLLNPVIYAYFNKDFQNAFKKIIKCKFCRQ
Description: GPCR radioligand binding assay, [3H]-8-OH-DPAT displacement, HEK293 membranes.

For another assay, the target named is T3, bovine factor Xa (Bos taurus, UniProt P00743).
T3 construct: bovine factor Xa, Chromogenix, 2 nkat/mL; purchased Chromogenix
Kind of assay: Protease inhibitory assay, chromogenic substrate S-2222. The assay is classed as biochemical.

A further assay has as its target T4, human 5-HT7b receptor (Homo sapiens, UniProt P34969).
T4 construct: expressed in transfected cells
Kind of assay: GPCR radioligand binding assay, [3H]-5-CT displacement, HEK293 membranes.

In another assay the target is T5, human thrombin (Homo sapiens, UniProt P00734).
T5 construct: human thrombin; purchased Sigma-Aldrich
Kind of assay: Protease inhibitory assay, chromogenic substrate S-2238. The assay is classed as biochemical. To be noted: plate layout, label = plate position; Cheng-Prusoff, Km 2.6 µM; read-out: Thrombin Ki.

The mark [1] stands for this setting: 10 µM, read-out: 5-HT6 % Inhibition by plate position.
Where [2] appears, read: 5-HT6, average of exp_1 and exp_2, read-out: %inh 5-HT6 average.
Where [3] appears, read: 5-HT6, average, values below 0 and above 100% were set as 0 and 100, read-out: %inh 5-HT6 corrected*.
Where [4] appears, read: 5-HT6, replicate exp_1, read-out: %inh 5-HT6 exp_1.
Setting [5] is: 5-HT6, replicate exp_2, read-out: %inh 5-HT6 exp_2.
The mark [6] stands for this setting: 10 µM, read-out: 5-HT1A % Inhibition by plate position.
Where [7] appears, read: 5-HT1A, average of exp_1 and exp_2, read-out: %inh 5-HT1A average.
Setting [8] is: 5-HT1A, average, values below 0 and above 100% were set as 0 and 100, read-out: %inh 5-HT1A corrected*.
The mark [9] stands for this setting: 5-HT1A, replicate exp_1, read-out: %inh 5-HT1A exp_1.
The mark [10] stands for this setting: 5-HT1A, replicate exp_2, read-out: %inh 5-HT1A exp_2.
[11] abbreviates: plate layout, label = plate position, Cheng-Prusoff, Km 164 µM, read-out: Factor Xa Ki.
Setting [12] is: 10 µM, read-out: 5-HT7 % Inhibition by plate position.
Setting [13] is: 5-HT7, average of exp_1 and exp_2, read-out: %inh 5-HT7 average.
[14] abbreviates: 5-HT7, average, values below 0 and above 100% were set as 0 and 100, read-out: %inh 5-HT7 corrected*.
The mark [15] stands for this setting: 5-HT7, replicate exp_1, read-out: %inh 5-HT7 exp_1.
Where [16] appears, read: 5-HT7, replicate exp_2, read-out: %inh 5-HT7 exp_2.

T1 sequence (P50406 whole entry): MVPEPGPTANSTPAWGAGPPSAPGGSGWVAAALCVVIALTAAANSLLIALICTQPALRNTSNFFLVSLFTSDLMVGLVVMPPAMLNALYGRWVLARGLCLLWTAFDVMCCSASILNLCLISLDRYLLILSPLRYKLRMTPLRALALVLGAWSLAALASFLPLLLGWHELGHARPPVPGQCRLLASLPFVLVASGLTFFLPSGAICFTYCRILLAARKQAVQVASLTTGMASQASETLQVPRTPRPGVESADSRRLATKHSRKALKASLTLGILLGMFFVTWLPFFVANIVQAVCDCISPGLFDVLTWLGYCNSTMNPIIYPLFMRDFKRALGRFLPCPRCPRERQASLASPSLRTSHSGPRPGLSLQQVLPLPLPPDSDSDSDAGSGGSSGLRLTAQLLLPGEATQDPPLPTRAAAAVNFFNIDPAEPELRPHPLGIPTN
T4 sequence (P34969 1-432): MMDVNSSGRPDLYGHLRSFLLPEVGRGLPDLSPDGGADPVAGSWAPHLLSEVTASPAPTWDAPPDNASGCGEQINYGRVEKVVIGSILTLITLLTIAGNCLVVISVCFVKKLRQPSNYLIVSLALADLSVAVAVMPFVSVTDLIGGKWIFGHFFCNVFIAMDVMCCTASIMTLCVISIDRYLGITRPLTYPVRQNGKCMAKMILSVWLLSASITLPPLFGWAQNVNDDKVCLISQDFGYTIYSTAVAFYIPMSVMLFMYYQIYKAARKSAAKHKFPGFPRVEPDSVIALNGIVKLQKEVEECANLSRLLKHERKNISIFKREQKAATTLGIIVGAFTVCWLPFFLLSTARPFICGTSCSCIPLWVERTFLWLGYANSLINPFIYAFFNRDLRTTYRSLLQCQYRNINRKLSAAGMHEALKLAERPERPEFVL
T3 sequence (P00743 234-492 limits assumed): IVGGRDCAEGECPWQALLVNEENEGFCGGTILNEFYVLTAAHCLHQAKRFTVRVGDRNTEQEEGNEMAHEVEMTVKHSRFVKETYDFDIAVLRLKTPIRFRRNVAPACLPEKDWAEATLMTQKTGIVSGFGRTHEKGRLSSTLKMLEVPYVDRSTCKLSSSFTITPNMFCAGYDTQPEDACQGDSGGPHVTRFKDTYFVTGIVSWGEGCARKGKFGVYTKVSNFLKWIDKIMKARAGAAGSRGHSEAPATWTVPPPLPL
T3 sequence (P00743 41-180 partner limits assumed): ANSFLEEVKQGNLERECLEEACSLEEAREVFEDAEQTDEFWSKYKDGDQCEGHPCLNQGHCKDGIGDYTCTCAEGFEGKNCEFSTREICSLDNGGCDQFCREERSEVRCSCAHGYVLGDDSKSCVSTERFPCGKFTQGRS

As to `Oc1ccccc1N1CCCCC1` [A12], the inhibition at 10 µM on human 5-HT6 receptor (setting [1]) amounted to 55%; on human 5-HT6 receptor (setting [2]) it was 55%; on human 5-HT6 receptor (setting [3]) it was 55%; at human 5-HT6 receptor (setting [4]) it was 69%; on human 5-HT6 receptor (setting [5]), 42%; at human 5-HT1A receptor (setting [6]), 0%. For the same compound, the inhibition at 10 µM at human 5-HT1A receptor (setting [7]) was -10%; on human 5-HT1A receptor (setting [8]), 0%; on human 5-HT1A receptor (setting [9]), 3.37%; on human 5-HT1A receptor (setting [10]), -23%; on human 5-HT7b receptor (setting [12]), 0%; at human 5-HT7b receptor (setting [13]) it was -0.0781%. Further, the inhibition at 10 µM at human 5-HT7b receptor (setting [14]) was 0%; on human 5-HT7b receptor (setting [15]), -4.73%; at human 5-HT7b receptor (setting [16]), 4.58%. For the same compound, on bovine factor Xa (setting [11]), the Ki turned out to be 611 µM.

Turning to `COc1ccccc1CC1CCNCC1` [B12], the inhibition at 10 µM was determined as 76% at human 5-HT6 receptor (read-out: 5-HT6 % Inhibition by plate position); 76% at human 5-HT6 receptor (read-out: %inh 5-HT6 average); 76% at human 5-HT6 receptor (read-out: %inh 5-HT6 corrected*); 84% on human 5-HT6 receptor (read-out: %inh 5-HT6 exp_1); 68% on human 5-HT6 receptor (read-out: %inh 5-HT6 exp_2); 50% at human 5-HT1A receptor (read-out: 5-HT1A % Inhibition by plate position). The inhibition at 10 µM stood at 50% on human 5-HT1A receptor (read-out: %inh 5-HT1A average); 50% on human 5-HT1A receptor (read-out: %inh 5-HT1A corrected*); 52% on human 5-HT1A receptor (read-out: %inh 5-HT1A exp_1); 48% at human 5-HT1A receptor (read-out: %inh 5-HT1A exp_2); 54% at human 5-HT7b receptor (read-out: 5-HT7 % Inhibition by plate position); 54% at human 5-HT7b receptor (read-out: %inh 5-HT7 average). For the same compound, the inhibition at 10 µM at human 5-HT7b receptor (read-out: %inh 5-HT7 corrected*) was determined as 54%; on human 5-HT7b receptor (read-out: %inh 5-HT7 exp_1), 45%; on human 5-HT7b receptor (read-out: %inh 5-HT7 exp_2), 63%. The same compound displayed a Ki at bovine factor Xa of 401 µM.

In the case of `Nc1nnc(-c2cccs2)[nH]1` [D3], the inhibition at 10 µM on human 5-HT6 receptor (setting [1]) is 52%; on human 5-HT6 receptor (setting [2]), 52%; on human 5-HT6 receptor (setting [3]) it was 52%; on human 5-HT6 receptor (setting [4]) it was 52%; on human 5-HT6 receptor (setting [5]), 53%; at human 5-HT1A receptor (setting [6]), 0.863%. The inhibition at 10 µM at human 5-HT1A receptor (setting [7]) is 0.863%; at human 5-HT1A receptor (setting [8]), 0.863%; at human 5-HT1A receptor (setting [9]), 1.73%; at human 5-HT1A receptor (setting [10]) it was 0%; at human 5-HT7b receptor (setting [12]), 0%; at human 5-HT7b receptor (setting [13]), -1.67%. The inhibition at 10 µM is 0% at human 5-HT7b receptor (setting [14]), 1.55% at human 5-HT7b receptor (setting [15]) and -5% at human 5-HT7b receptor (setting [16]). In addition, the Ki on human thrombin is 181 µM.

Consider `c1ccc(Nc2nncs2)cc1` [D8], for which the inhibition at 10 µM at human 5-HT6 receptor (setting [1]) is 1.55%; at human 5-HT6 receptor (setting [2]), 1.55%; at human 5-HT6 receptor (setting [3]), 1.55%; on human 5-HT6 receptor (setting [4]) it was 9%; on human 5-HT6 receptor (setting [5]), -6%; on human 5-HT1A receptor (setting [6]), 0%. Moreover, the inhibition at 10 µM at human 5-HT1A receptor (setting [7]) was -2.41%; on human 5-HT1A receptor (setting [8]), 0%; on human 5-HT1A receptor (setting [9]), -10%; at human 5-HT1A receptor (setting [10]), 5.56%; on human 5-HT7b receptor (setting [12]), 0%; at human 5-HT7b receptor (setting [13]) it was -12%. Moreover, the inhibition at 10 µM at human 5-HT7b receptor (setting [14]) is 0%; on human 5-HT7b receptor (setting [15]), -3.33%; at human 5-HT7b receptor (setting [16]), -21%. For the same compound, the Ki on bovine factor Xa (setting [11]) was 733 µM.
